Measurements: PubChem BioAssay AID1963856 (Molecular Pharmacology Branch, DTP, NCI, 2024)
pIC50: −log10 of the molar value.

Test system: LG0567-F671-PDC KRAS tumor spheroid viability
Experiment: Anticancer human tumor LG0567-F671-PDC patient-derived lung adenocarcinoma cell line growth inhibition [KRAS2]
Conditions: spheroids with HUVEC and MSC; for pIC50: curve of first compound; for viability, T/C: stronger effect = lower value; active means viability on the fitted dose curve at most 10% of control; inactive means the rest
From the text: Multicellular complex tumor spheroid response to RAS pathway inhibitors in combination with a targeted agents in patient-derived cell lines with oncogenic KRAS variants from multiple cancer types
A high-throughput screen of multi-cell type tumor spheroids was designed to identify active combinations of targeted small molecules and KRAS pathway inhibitors. Complex spheroids include a stromal component modeled by human endothelial cells (HUVEC) and fibroblasts modeled by human mesenchymal stem cells (MSCs). The concentration ranges selected for each drug and investigational agent were based upon clinically achievable concentrations if the clinical Cmax of the agent was known.
Compounds. The drugs and investigational agents: BI-3406 (NSC825286), BAY-293 (NSC824723), batoprotafib (TNO155; NSC825523), sotorasib (AMG 510; NSC818433), MRTX1257 (NSC819558), elimusertib (BAY 1895344; NSC800525), molibresib (GSK525762; NSC774829), temuterkib (LY3214996; NSC803410), venetoclax (NSC766270), alisertib (NSC759677), olaparib (NSC753686), talazoparib (NSC767125), erdafitinib (NSC781556), ipatasertib (NSC767898), cabozantinib (NSC761068), nintedanib (NSC756659), abemaciclib (NSC768073), docetaxel (NSC628503), trametinib (NSC758246), and sapanisertib (NSC764658) were obtained from the National Cancer Institute (NCI) Developmental Therapeutics Program Chemical Repository. The FDA-approved anticancer drug set is available from the Developmental Therapeutics Program. […] The stock solutions were prepared in dimethyl sulfoxide (DMSO, Sigma-Aldrich, St. Louis, MO, cat. D2650) at 800-fold the tested concentration and stored at -70 degrees C prior to their use. All drugs and investigational agents were tested over a range starting from a high concentration at or near the clinical Cmax and decreasing in half-log increments. If the clinical Cmax for an agent had not been determined, the highest concentration tested was 10 microM.
Cell Culture. All cells were maintained in an incubator at 37 degrees C and 5% CO2 with 95% humidity. The PDC lines were cultured according to standard operating procedures established by the NCI PDMR (https://pdmr.cancer.gov/sops/default.htm). Briefly, all PDCs were thawed and cultured in Matrigel-coated flasks prepared with a working solution of 1X Ham's F-12 nutrient mix, without supplementation (Invitrogen, Waltham, MA, cat. 11765054), 100 U/mL penicillin-streptomycin (Invitrogen, cat. 15140122), and 2.5% Matrigel (Corning Inc., Corning, NY, cat. 354248) for the first three passages. All PDCs were cultured in complete DMEM/F-12 media containing advanced DMEM/F-12 (Invitrogen, cat. 12634028), 4.9% defined fetal bovine serum, heat inactivated (HyClone Laboratories Inc., Logan, UT, cat. SH30070.03HI), 389 ng/mL hydrocortisone (Sigma-Aldrich, cat. H4001), 9.7 ng/mL human EGF recombinant protein (Invitrogen, cat. PHG0313), 23.4 microg/mL adenine (Sigma-Aldrich, cat. A2786), 97.3 U/mL penicillin-streptomycin (Invitrogen, cat. 15140122), 1.9 mM L-glutamine (Invitrogen, cat. 25030081), and 9.7 microM Y-27632 dihydrochloride (Tocris Bioscience, Bristol, United Kingdom, cat. 1254). The PDCs were cultured in complete DMEM/F12 media without 9.7 microM Y-27632 dihydrochloride for at least two passages prior to the screen. The established cell line HOP-62 was cultured in RPMI 1640 medium, HEPES (Invitrogen, cat. 22400105) with 10% defined fetal bovine serum (HyClone Laboratories Inc., cat. SH30070.03) and 2 mM L-glutamine (Invitrogen, cat. 25030081). The pooled donor HUVEC were cultured in endothelial cell growth medium 2 (PromoCell, Heidelberg, Germany, cat. C-22011) and the hMSC were cultured in mesenchymal stem cell growth medium 2 (PromoCell, cat. C-28009). For all experiments, HUVEC and hMSC were used at passages </=5, while the malignant cell lines were used at passages </=15. […]

[1] = second compound 0.1 µM, first compound 0.0316 µM
[2] = second compound 0.1 µM, first compound 0.1 µM
[3] = second compound 0.316 µM, first compound 0.0316 µM
[4] = second compound 0.316 µM, first compound 0.1 µM
[5] = second compound 1 µM, first compound 0.0316 µM
[6] = second compound 1 µM, first compound 0.1 µM
[7] = second compound 3.16 µM, first compound 0.0316 µM
[8] = second compound 3.16 µM, first compound 0.1 µM
[9] = second compound 10 µM, first compound 0.0316 µM
[10] = second compound 10 µM, first compound 0.1 µM
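Further: drug exposure lasted seven days after spheroids formed for three days.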

COc1cc2nccc(Oc3ccc(NC(=O)C4(C(=O)Nc5ccc(F)cc5)CC4)cc3)c2cc1OC + CNCc1ccccc1-c1csc(C(C)Nc2nc(C)nc3cc(OC)c(OC)cc23)c1
inactive: viability, T/C [1] 78.2% | viability, T/C [2] 66.5% | viability, T/C (second compound 0.1 µM, first compound 0.316 µM) 56.8% | viability, T/C (second compound 0.1 µM, first compound 1 µM) 49.6% | viability, T/C (second compound 0.1 µM, first compound 3.16 µM) 33.1% | viability, T/C (second compound 0.1 µM, first compound 10 µM) 88.5% | viability, T/C [3] 65.8% | viability, T/C [4] 58.8% | viability, T/C (second compound 0.316 µM, first compound 0.316 µM) 51.8% | viability, T/C (second compound 0.316 µM, first compound 1 µM) 39.6% | viability, T/C (second compound 0.316 µM, first compound 3.16 µM) 27.2% | viability, T/C (second compound 0.316 µM, first compound 10 µM) 75.7% | viability, T/C [5] 55% | viability, T/C [6] 58.2% | viability, T/C (second compound 1 µM, first compound 0.316 µM) 45.4% | viability, T/C (second compound 1 µM, first compound 1 µM) 27.8% | viability, T/C (second compound 1 µM, first compound 3.16 µM) 23.1% | viability, T/C (second compound 1 µM, first compound 10 µM) 38%
6.71: pIC50 (second compound 1 µM)
active: viability, T/C [7] 0.31% | viability, T/C [8] 0.25% | viability, T/C (second compound 3.16 µM, first compound 0.316 µM) 0.87% | viability, T/C (second compound 3.16 µM, first compound 1 µM) 0.11% | viability, T/C (second compound 3.16 µM, first compound 3.16 µM) 0.21% | viability, T/C (second compound 3.16 µM, first compound 10 µM) 0.7% | viability, T/C [9] 0.63% | viability, T/C [10] 0.38% | viability, T/C (second compound 10 µM, first compound 0.316 µM) 0.97% | viability, T/C (second compound 10 µM, first compound 1 µM) 0.33% | viability, T/C (second compound 10 µM, first compound 3.16 µM) 2.44% | viability, T/C (second compound 10 µM, first compound 10 µM) 0.91%
> 7.50: pIC50 (second compound 3.16 µM) | pIC50 (second compound 10 µM)
6.27: pIC50 (second compound 0.316 µM)
< 5.00: pIC50 (second compound 0.1 µM)

CC(C)n1nc(-c2ccc3oc(N)nc3c2)c2c(N)ncnc21 + CC1OCC2(CCN(c3cnc(Sc4ccnc(N)c4Cl)c(N)n3)CC2)C1N
active: viability, T/C [3] 7.3% | viability, T/C [4] 6.32% | viability, T/C (second compound 1 µM, first compound 0.01 µM) 5.96% | viability, T/C [5] 4.63% | viability, T/C [6] 3.58% | viability, T/C (second compound 3.16 µM, first compound 0.00316 µM) 6.04% | viability, T/C (second compound 3.16 µM, first compound 0.01 µM) 2.59% | viability, T/C [7] 2.37% | viability, T/C [8] 1.36% | viability, T/C (second compound 10 µM, first compound 0.000316 µM) 7.01% | viability, T/C (second compound 10 µM, first compound 0.001 µM) 5.93% | viability, T/C (second compound 10 µM, first compound 0.00316 µM) 3.89% | viability, T/C (second compound 10 µM, first compound 0.01 µM) 2.31% | viability, T/C [9] 1.59% | viability, T/C [10] 1.8%
inactive: viability, T/C (second compound 0.1 µM, first compound 0.000316 µM) 43.3% | viability, T/C (second compound 0.1 µM, first compound 0.001 µM) 48.6% | viability, T/C (second compound 0.1 µM, first compound 0.00316 µM) 25.5% | viability, T/C (second compound 0.1 µM, first compound 0.01 µM) 18% | viability, T/C [1] 16.2% | viability, T/C [2] 10.6% | viability, T/C (second compound 0.316 µM, first compound 0.000316 µM) 35.9% | viability, T/C (second compound 0.316 µM, first compound 0.001 µM) 29% | viability, T/C (second compound 0.316 µM, first compound 0.00316 µM) 21% | viability, T/C (second compound 0.316 µM, first compound 0.01 µM) 11.8% | viability, T/C (second compound 1 µM, first compound 0.000316 µM) 25.8% | viability, T/C (second compound 1 µM, first compound 0.001 µM) 18.8% | viability, T/C (second compound 1 µM, first compound 0.00316 µM) 11.4% | viability, T/C (second compound 3.16 µM, first compound 0.000316 µM) 17.4% | viability, T/C (second compound 3.16 µM, first compound 0.001 µM) 12%
> 9.50: pIC50 (second compound 0.1 µM) | pIC50 (second compound 0.316 µM) | pIC50 (second compound 1 µM) | pIC50 (second compound 3.16 µM) | pIC50 (second compound 10 µM)
